Broadly, the GI50 is the concentration that inhibits growth by half. Higher therefore signals lower sensitivity of the cells.

Holding throughout (type): functional
The test system of assay [1] is MCF7. Put plainly: Cytotoxicity against human MCF7 cells.
Assay [2] concerns NCI-H460. Put plainly: Cytotoxicity against human H460 cells.
Assay [3] deals with SF-268. Put plainly: Cytotoxicity against human SF268 cells.

With `CC(C)(O)/C=C/C(=O)[C@](C)(O)[C@H]1[C@H](O)C[C@@]2(C)[C@@H]3CC=C4[C@@H](C[C@H](O)C(=O)C4(C)C)[C@]3(C)C(=O)C[C@]12C` [CUCURBITACIN D], the results for the GI50 in assay [1], in assay [2] and in assay [3] were 20 nM, 13 nM and 21 nM, respectively.

Turning to `CC(C)(O)/C=C/C(=O)[C@](C)(O)[C@H]1[C@H](O)C[C@@]2(C)[C@@H]3CC=C4[C@@H](CCC(=O)C4(C)C)[C@]3(C)C(=O)C[C@]12C`, the figures for the GI50 in assay [1], in assay [2] and in assay [3] were 41 nM, 32 nM and 210 nM, respectively.

For the molecule `CC(=O)OC(C)(C)/C=C/C(=O)[C@](C)(O)[C@H]1[C@H](O)C[C@@]2(C)[C@@H]3CC=C4[C@@H](C[C@H](O)[C@@H](O)C4(C)C)[C@]3(C)C(=O)C[C@]12C`, the results for the GI50 in assay [1], in assay [2] and in assay [3] were 110 nM, 65 nM and 87 nM, respectively.

Source of the values: ChEMBL document CHEMBL1138432, “Cytotoxic cucurbitacin constituents from Sloanea zuliaensis” (2003).
